Reference: PMC11480411, “Mucosal sugars delineate pyrazine vs pyrazinone autoinducer signaling in Klebsiella oxytoca” (Nature Communications, 2024)
Values joined by “and” are separate entries in the source; they are usually repeats but may differ in a detail not shown here. Equal entries are not always repeated.

Experiments:
Test in all cases: PRESTO-Tango GPCR screen and dose-response
Type in all cases: cell-based
HRH3 = target: T1, HRH3 (Homo sapiens, UniProt Q9Y5N1); conditions: replicate wells
T1 construct: expressed in transfected cells; host or cells: HTLA cells (HEK293 line stably expressing β-arrestin-TEV and tTA-Luciferase)
T1 sequence (Q9Y5N1 whole entry): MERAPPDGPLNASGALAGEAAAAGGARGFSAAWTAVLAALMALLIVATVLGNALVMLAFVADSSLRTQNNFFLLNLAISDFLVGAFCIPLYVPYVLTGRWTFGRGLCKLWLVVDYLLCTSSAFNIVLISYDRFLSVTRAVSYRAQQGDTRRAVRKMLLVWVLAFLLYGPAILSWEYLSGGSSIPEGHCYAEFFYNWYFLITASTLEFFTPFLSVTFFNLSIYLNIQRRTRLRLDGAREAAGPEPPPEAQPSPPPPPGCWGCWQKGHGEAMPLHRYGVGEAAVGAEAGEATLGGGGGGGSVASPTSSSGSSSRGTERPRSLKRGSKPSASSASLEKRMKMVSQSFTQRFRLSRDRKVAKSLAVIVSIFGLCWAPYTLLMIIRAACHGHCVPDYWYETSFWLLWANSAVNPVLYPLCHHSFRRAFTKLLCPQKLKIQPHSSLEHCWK
How it was run: (§1)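 Each receptor was expressed from a Tango plasmid in HTLA cells, which stably carry β-arrestin-TEV and a tTA-driven luciferase reporter. Single-point screening used 100 μM final compound for 20 h, and the signal was normalised to PBS control. Concentration-response testing spanned 10^−4 to 10^−15 M.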

HRH2 = target: T2, HRH2 (Homo sapiens, UniProt P25021); conditions: for HRH2 dose-response raw reporter signal (Fig. 5b source data): replicate wells
T2 construct: expressed in transfected cells; host or cells: HTLA cells (HEK293 line stably expressing β-arrestin-TEV and tTA-Luciferase)
T2 sequence (P25021 whole entry): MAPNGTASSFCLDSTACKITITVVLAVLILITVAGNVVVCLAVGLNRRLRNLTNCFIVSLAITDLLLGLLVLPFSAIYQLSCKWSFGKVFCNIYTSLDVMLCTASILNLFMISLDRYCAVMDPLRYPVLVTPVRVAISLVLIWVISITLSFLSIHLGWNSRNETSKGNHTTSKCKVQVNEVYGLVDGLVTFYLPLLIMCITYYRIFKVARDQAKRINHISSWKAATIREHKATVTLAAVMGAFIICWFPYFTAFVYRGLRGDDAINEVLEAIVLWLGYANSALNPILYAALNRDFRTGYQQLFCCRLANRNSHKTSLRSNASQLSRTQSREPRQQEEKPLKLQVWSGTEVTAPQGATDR
How it was run: as §1

[1] = target: T3, histamine receptor H4 (HRH4) (Homo sapiens, UniProt Q9H3N8); conditions: for HRH4 dose-response raw reporter signal (Fig. 5b source data): replicate wells
T3 construct: expressed in transfected cells; host or cells: HTLA cells (HEK293 line stably expressing β-arrestin-TEV and tTA-Luciferase)
T3 sequence (Q9H3N8 whole entry): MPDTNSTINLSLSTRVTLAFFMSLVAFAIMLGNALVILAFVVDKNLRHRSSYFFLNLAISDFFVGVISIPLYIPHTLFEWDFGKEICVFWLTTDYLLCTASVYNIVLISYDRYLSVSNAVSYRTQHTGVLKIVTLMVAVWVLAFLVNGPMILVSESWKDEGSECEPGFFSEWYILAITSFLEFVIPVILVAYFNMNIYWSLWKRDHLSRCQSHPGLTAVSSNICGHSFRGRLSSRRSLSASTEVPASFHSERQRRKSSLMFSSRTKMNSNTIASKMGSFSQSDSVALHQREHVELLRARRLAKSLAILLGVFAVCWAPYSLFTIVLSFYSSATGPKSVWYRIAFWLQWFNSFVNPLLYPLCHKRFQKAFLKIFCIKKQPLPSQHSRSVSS
How it was run: as §1

CC(C)Cc1ncc(CCCNC(=N)N)[nH]c1=O [compound 3]
HRH3 dose-response raw reporter signal (Fig. 5b source data) (HRH3; Log(10)Conc (M) -6): 224 and 147 and 106
HRH3 dose-response raw reporter signal (Fig. 5b source data) (HRH3; Log(10)Conc (M) -7): 127 and 100 and 124
HRH3 dose-response raw reporter signal (Fig. 5b source data) (HRH3; Log(10)Conc (M) -8): 165 and 200 and 159
HRH3 dose-response raw reporter signal (Fig. 5b source data) (HRH3; Log(10)Conc (M) -9): 144 and 133 and 142
HRH3 dose-response raw reporter signal (Fig. 5b source data) (HRH3; Log(10)Conc (M) -10): 130 and 100 and 103
HRH3 dose-response raw reporter signal (Fig. 5b source data) (HRH3; Log(10)Conc (M) -11): 156 and 177 and 165
HRH3 dose-response raw reporter signal (Fig. 5b source data) (HRH3; Log(10)Conc (M) -12): 103 and 171 and 100
HRH3 dose-response raw reporter signal (Fig. 5b source data) (HRH3; Log(10)Conc (M) -13): 124 and 189 and 112
HRH3 dose-response raw reporter signal (Fig. 5b source data) (HRH3; Log(10)Conc (M) -14): 115 and 200 and 124
HRH3 dose-response raw reporter signal (Fig. 5b source data) (HRH3; Log(10)Conc (M) -15): 106 and 271 and 127
GPCR activation (heatmap value) (HRH2; HRH2, 100 µM): -0.4047
HRH2 dose-response raw reporter signal (Fig. 5b source data) (HRH2; Log(10)Conc (M) -4): 18 and 44 and 35
HRH2 dose-response raw reporter signal (Fig. 5b source data) (HRH2; Log(10)Conc (M) -5): 83 and 74 and 44
HRH2 dose-response raw reporter signal (Fig. 5b source data) (HRH2; Log(10)Conc (M) -6): 38 (2×) and 44
HRH2 dose-response raw reporter signal (Fig. 5b source data) (HRH2; Log(10)Conc (M) -7): 91 and 59 and 47
HRH2 dose-response raw reporter signal (Fig. 5b source data) (HRH2; Log(10)Conc (M) -8): 50 (2×) and 41
HRH2 dose-response raw reporter signal (Fig. 5b source data) (HRH2; Log(10)Conc (M) -9): 44 and 41 and 71
HRH2 dose-response raw reporter signal (Fig. 5b source data) (HRH2; Log(10)Conc (M) -10): 53 and 47 and 59
HRH2 dose-response raw reporter signal (Fig. 5b source data) (HRH2; Log(10)Conc (M) -11): 56 (2×) and 44
HRH2 dose-response raw reporter signal (Fig. 5b source data) (HRH2; Log(10)Conc (M) -12): 41 (2×) and 27
HRH2 dose-response raw reporter signal (Fig. 5b source data) (HRH2; Log(10)Conc (M) -13): 29 and 47 and 56
HRH2 dose-response raw reporter signal (Fig. 5b source data) (HRH2; Log(10)Conc (M) -14): 106 and 71 and 50
HRH2 dose-response raw reporter signal (Fig. 5b source data) (HRH2; Log(10)Conc (M) -15): 100 and 35 and 29
GPCR activation (heatmap value) ([1]; HRH4, 100 µM): 2.217
HRH4 dose-response raw reporter signal (Fig. 5b source data) ([1]; Log(10)Conc (M) -5): 8773 and 9531
HRH4 dose-response raw reporter signal (Fig. 5b source data) ([1]; Log(10)Conc (M) -6): 1621 and 2108
HRH4 dose-response raw reporter signal (Fig. 5b source data) ([1]; Log(10)Conc (M) -7): 649 and 769
HRH4 dose-response raw reporter signal (Fig. 5b source data) ([1]; Log(10)Conc (M) -8): 454 and 619
HRH4 dose-response raw reporter signal (Fig. 5b source data) ([1]; Log(10)Conc (M) -9): 531 and 542
HRH4 dose-response raw reporter signal (Fig. 5b source data) ([1]; Log(10)Conc (M) -10): 578 and 380
HRH4 dose-response raw reporter signal (Fig. 5b source data) ([1]; Log(10)Conc (M) -11): 348 and 430
HRH4 dose-response raw reporter signal (Fig. 5b source data) ([1]; Log(10)Conc (M) -12): 348 and 454
HRH4 dose-response raw reporter signal (Fig. 5b source data) ([1]; Log(10)Conc (M) -13): 286 and 351
HRH4 dose-response raw reporter signal (Fig. 5b source data) ([1]; Log(10)Conc (M) -14): 262 and 481
HRH4 dose-response raw reporter signal (Fig. 5b source data) ([1]; Log(10)Conc (M) -15): 292 and 283
EC50 ([1]; PRESTO-Tango dose-response, n = 3, read-out: EC50 (HRH4 activation)): 12.5 µM
